Counter-ions that a name gives are not always drawn.
Target: IDO2 (Homo sapiens (Human), UniProt Q6ZQW0)
Experiment: Cellular IDO2 assay, doxycycline and 5-methoxy-L-tryptophan medium, colorimetric
Assay type: cell-based
Conditions: cellular level, 72 h incubation, signal at 480 nm

IDO2, sequence (Q6ZQW0 whole entry, species assumed): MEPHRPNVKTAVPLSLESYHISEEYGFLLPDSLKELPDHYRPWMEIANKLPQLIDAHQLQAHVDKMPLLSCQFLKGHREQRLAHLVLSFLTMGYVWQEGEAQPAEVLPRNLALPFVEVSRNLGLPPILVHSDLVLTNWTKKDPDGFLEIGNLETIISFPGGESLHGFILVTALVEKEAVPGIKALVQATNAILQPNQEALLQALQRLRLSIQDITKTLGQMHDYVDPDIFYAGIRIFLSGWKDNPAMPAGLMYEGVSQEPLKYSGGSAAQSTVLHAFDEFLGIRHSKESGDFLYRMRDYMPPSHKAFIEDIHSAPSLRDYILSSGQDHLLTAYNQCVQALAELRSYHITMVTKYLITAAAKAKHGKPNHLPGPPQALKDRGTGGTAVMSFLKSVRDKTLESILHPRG

Row | IC50 [nM] | Compound
1 | < 50 | O=C1c2cc([N+](=O)[O-])ccc2-n2c1nc1ccc(F)c(Cl)c1c2=O [Compound 110]
2 | 50 to 500 | NCc1ccc2c(=O)n3c(nc2c1)C(=O)c1cc(F)ccc1-3 [Compound 90, 3-(aminomethyl)-8-fluoroindolo[2,1-b]quinazoline-6,12-dione Hydrochloride Salt]
3 | < 50 | NS(=O)(=O)NCc1ccc2c(=O)n3c(nc2c1)C(=O)c1cc(F)ccc1-3 [Compound 88]
4 | < 50 | [2H]C([2H])(Nc1ccc2c(=O)n3c(nc2c1)C(=O)c1cc(F)ccc1-3)c1ccc(F)cc1 [Compound 69]
5 | < 50 | O=C1c2cc(F)ccc2-n2c1nc1ccc(-n3ccnc3)cc1c2=O [Compound 137, 8-fluoro-2-(1H-imidazol-1-yl)indolo[2,1-b]quinazoline-6,12-dione]
6 | < 50 | CN(C)Cc1ccc2nc3n(c(=O)c2c1Cl)-c1ccc(C#N)cc1C3=O [Compound 104]
7 | < 50 | CS(=O)(=O)NCc1ccc2c(=O)n3c(nc2c1)C(=O)c1cc(F)ccc1-3 [Compound 95, N-((8-fluoro-6,12-dioxo-6,12-dihydroindolo[2,1-b]quinazolin-3-yl)methyl)methanesulfonamide]
8 | < 50 | N#Cc1ccc2c(c1)/C(=N\O)c1nc3cc(Cl)ccc3c(=O)n1-2 [Compound 84]
9 | 50 to 500 | CS(=O)(=O)Nc1ccc2c(c1)C(=O)c1nc3cc(Cl)cc(Cl)c3c(=O)n1-2 [Compound 86]
10 | < 50 | O=C1c2cc(F)ccc2-n2c1nc1ccc(-c3c[nH]cn3)cc1c2=O [Compound 151, 8-fluoro-2-(1H-imidazol-4-yl)indolo[2,1-b]quinazoline-6,12-dione]

The next lines start with the compound.

Row | Compound | IC50 [nM]
11 | CON=C1c2cc(F)ccc2-n2c1nc1cc(CNC(=O)OCc3ccccc3)ccc1c2=O (stereo in doubt) [Compound 93, benzyl (Z)-((8-fluoro-6-(methoxyimino)-12-oxo-6,12-dihydroindolo[2,1-b]quinazolin-3-yl)methyl)carbamate] | 50 to 500
12 | O=C1c2cc([N+](=O)[O-])ccc2-n2c1nc1cc(Cl)cc(Cl)c1c2=O [Compound 56, 1,3-Dichloro-8-nitroindolo[2,1-b]quinazoline-6,12-dione] | 50 to 500
13 | N#C/N=C(\N)NCc1ccc2nc3n(c(=O)c2c1)-c1ccc(F)cc1C3=O [Compound 140, 2-cyano-1-((8-fluoro-6,12-dioxo-6,12-dihydroindolo[2,1-b]quinazolin-2-yl)methyl)guanidine] | < 50
14 | O=c1c2ccccc2nc2n1-c1ccc([N+](=O)[O-])cc1C2 [Compound 62, 8-Nitroindolo[2,1-b]quinazolin-12(6H)-one] | 50 to 500
15 | COc1cc2c(=O)n3c(nc2cn1)C(=O)c1cc([N+](=O)[O-])ccc1-3 [Compound 58, 3-Methoxy-9-nitropyrido[3′,4′:4,5]pyrimido[1,2-a]indole-5,11-dione] | 50 to 500
16 | N#Cc1ccc2c(c1)C(=O)c1nc3ccc(CN4CCOCC4)cc3c(=O)n1-2 [Compound 136, 2-(morpholinomethyl)-6,12-dioxo-6,12-dihydroindolo[2,1-b]quinazoline-8-carbonitrile] | < 50
17 | CO/N=C1/c2cc(F)ccc2-n2c1nc1cc(-n3ccnc3)ccc1c2=O [Compound 97, (Z)-8-fluoro-3-(1H-imidazol-1-yl)-6-(methoxyimino)indolo[2,1-b]quinazolin-12(6H)-one] | < 50
18 | N#Cc1ccc2c(c1)Cc1nc3cc(F)ccc3c(=O)n1-2 [Compound 72] | < 50
19 | O=C1c2cc([N+](=O)[O-])ccc2-n2c1nc1cccc(Br)c1c2=O [Compound 55, 1-Bromo-8-nitroindolo[2,1-b]quinazoline-6,12-dione] | > 500
20 | O=c1c2cccc(Nc3ccc(F)cc3)c2nc2n1-c1ccc(F)cc1C2=NO (stereo in doubt) [Compound 123, (Z)-8-Fluoro-4-((4-fluorophenyl)amino)-6-(hydroxyimino)indolo[2,1-b]quinazolin-12(6H)-one] | 50 to 500
